Experimental findings from patent US10711242B2, “Apparatus and methods for controlling cellular development” (The Board of Trustees of the Leland Stanford Junior …, priority 2008, dated 2020) are described below.

The test system of one test is ChR2-ESCs. Kind of test: Retinoic acid-based neural differentiation of ChR2-ESCs, nestin expression. Format: cell-based, mouse. As to conditions: differentiation day 8; retinoic acid-based neural differentiation protocol. The text has this: (§1) We first verified that ChR2-ESCs were capable of neural lineage differentiation, using a retinoic acid-based neural differentiation protocol (FIG. 8c). At differentiation day 8, 40±10% of the cells expressed the neural lineage marker nestin. By day 14, a dense network of β-3-tubulin-positive ESC-derived immature neurons could be detected, followed by expression of the mature neuronal cytoskeletal protein MAP2 and the vesicular glutamate transporter II (vGlutll).
Neuronal differentiation was performed as previously described, with modifications. ESCs were plated on matrigel-coated dishes in embryoid body stage in complete ESC medium (see above). 24 hours later, medium was changed to ESC medium lacking LIF and including 5 μM retinoic acid, and changed every second day for 5 days. As a second differentiation step, cells were incubated with neural expansion medium for 7 days consisting of N2 supplement, SHH (50 ng/ml), FGF-8b (100 ng/ml), bFGF (10 ng/ml) and ascorbic acid (200 μM, Sigma) in DMEM/F12 and changed every two days. Thereafter cells were cultured in N2 and ascorbic acid in DMEM/F12.
Cells were fixed with 4% paraformaldehyde in PBS for 30 min at room temperature. Fixation was stopped by washing cells three times with 0.1M glycine/PBS. Cells were permeabilized and blocked (4% BSA/0.4% saponin/PBS) for 30 min and incubated in primary antibody solution at 4° C. overnight. […]

Another test relates to ChR2-ESC-derived neurons. Kind of test: Patch-clamp recording of excitatory postsynaptic currents in ChR2-ESC-derived neurons. Format: cell-based, mouse. The following applies: differentiation day 28.
Source text: as §1
Neuronal differentiation was performed as previously described, with modifications. ESCs were plated on matrigel-coated dishes in embryoid body stage in complete ESC medium (see above). […]
For acute slice electrophysiological experiments, 1 week post cell transplantation, 250 μm cortical slices were prepared in ice-cold cutting buffer (64 mM NaCl, 25 mM NaHCO3, 10 mM glucose, 120 mM sucrose, 2.5 mM KCl, 1.25 mM NaH2PO4, 0.5 mM CaCl2 and 7 mM MgCl2, equilibrated with 95% O2/5% CO2) using a vibratome (VT 1000 S; Leica). […] Images were recorded with a CCD camera (Retiga Exi, Qimaging) by Qimaging software. […] Membrane currents were measured with the patch-clamp technique in whole-cell mode using Axon Multiclamp 700B (Axon Instruments) amplifiers. […] Through a 20× objective lens, power density of the blue light was 8-12 mW/mm^2, measured by power meter (Newport). […]

`CC1=C(/C=C/C(C)=C/C=C/C(C)=C/C(=O)O)C(C)(C)CCC1` [RA, retinoic acid]: the “cells expressing the neural lineage marker nestin” value in the test on ChR2-ESCs was determined as 40±10%.

Take `NC(CCCP(=O)(O)O)C(=O)O` [D-AP5]: the “block of excitatory postsynaptic currents” value with ChR2-ESC-derived neurons is listed as “blocked”.

On to `N#Cc1cc2[nH]c(=O)c(=O)[nH]c2cc1[N+](=O)[O-]` [CNQX], for which the “block of excitatory postsynaptic currents” value in the test on ChR2-ESC-derived neurons is reported as “blocked”.
